Data: ChEMBL document CHEMBL4303097 (2020)
Counter-ions that a name gives are not always drawn.

Columns and labels:
[1] = Selectivity index for antiviral vs cytotoxic effect in Vero E6 cells (CC50/EC50); assay type: toxicity, cell-based, Vero C1008; details: monkey, read-out: Selectivity index
[2] = Cytotoxicity (CC50) determination in Vero E6 cells measured by fluorescence (OD590nm); assay type: toxicity, cell-based; details: chlorocebus sabaeus, Vero E6 cells (Vero C1008)
SARS-CoV-2 [3] = assay: Antiviral efficacy against SARS-CoV-2 (strain BavPat1) in Vero E6 cells assessed by inhibition of viral RNA replication measured by RT-PCR after 2 days; assay type: functional, organism-based, Chlorocebus sabaeus; details: Severe acute respiratory syndrome coronavirus 2, Vero C1008, 48 h
SARS-CoV-2 [4] = assay: Inhibition of cell viability relative to arbidol control (inhibition index > 1 indicates higher activity) measured by fluorescence (OD590nm) in Vero E6 cells infected with SARS-CoV-2 (strain BavPat1) at MOI 0.002 after 72hrs; assay type: functional; details: Chlorocebus sabaeus; Vero C1008

## Clc1ccc(Cn2c(CN3CCCC3)nc3ccccc32)cc1
[1]
  selectivity ratio: > 1.7
[2]
  CC50: > 40 µM
SARS-CoV-2 [3]
  EC50: 23.9 µM
  EC90: 38.2 µM

## CC(C)CN(C[C@@H](O)[C@H](Cc1ccccc1)NC(=O)O[C@H]1CO[C@H]2OCC[C@H]21)S(=O)(=O)c1ccc(N)cc1
SARS-CoV-2 [3]
  EC50: > 40 µM

## C=C[C@H]1CN2CC[C@H]1C[C@@H]2[C@@H](O)c1ccnc2ccc(OC)cc12
[1]
  selectivity ratio: > 7.8
[2]
  CC50: > 40 µM
SARS-CoV-2 [3]
  EC50: 5.11 µM
  EC90: > 40 µM

## COC(c1ccccc1)(c1ccccc1)C(Oc1nc(C)cc(C)n1)C(=O)O (configuration not stated)
SARS-CoV-2 [3]
  EC50: > 40 µM

## CCCCC[C@H](O)/C=C/[C@H]1[C@H](O)CC(=O)[C@@H]1CCCCCCC(=O)O [ALPROSTADIL]
[1]
  selectivity ratio: > 7.4
[2]
  CC50: > 40 µM
SARS-CoV-2 [3]
  EC50: 5.39 µM
  EC90: 62.4 µM

## CC[C@H]1OC(=O)[C@H](C)[C@@H](O[C@H]2C[C@@](C)(OC)[C@@H](O)[C@H](C)O2)[C@H](C)[C@@H](O[C@@H]2O[C@H](C)C[C@H](N(C)C)[C@H]2O)[C@](C)(O)C[C@@H](C)CN(C)[C@H](C)[C@@H](O)[C@]1(C)O [AZITHROMYCIN]
[1]
  selectivity ratio: > 19
[2]
  CC50: > 40 µM
SARS-CoV-2 [3]
  EC50: 2.12 µM

## C[C@@H]1CCO[C@H]2Cn3cc(C(=O)NCc4ccc(F)cc4F)c(=O)c(O)c3C(=O)N12 [DOLUTEGRAVIR]
[1]
  selectivity ratio: > 1.8
[2]
  CC50: > 40 µM
SARS-CoV-2 [3]
  EC50: 22 µM
  EC90: 42.8 µM

## CCN(CCO)CCCC(C)Nc1ccnc2cc(Cl)ccc12 (configuration not stated) [HYDROXYCHLOROQUINE SULFATE]
[1]
  selectivity ratio: > 10
[2]
  CC50: > 40 µM
SARS-CoV-2 [3]
  EC50: 4.17 µM

## CC(C)(C)NC[C@H](O)c1ccc(O)c(CO)c1 [LEVALBUTEROL HYDROCHLORIDE]
SARS-CoV-2 [3]
  EC50: > 40 µM

## CCCc1nc(C(C)(C)O)c(C(=O)OCc2oc(=O)oc2C)n1Cc1ccc(-c2ccccc2-c2nnn[nH]2)cc1 [OLMESARTAN MEDOXOMIL]
SARS-CoV-2 [3]
  EC50: > 40 µM

## COc1ccc2[nH]c([S+]([O-])Cc3ncc(C)c(OC)c3C)nc2c1 (configuration not stated) [OMEPRAZOLE]
[2]
  CC50: > 40 µM
SARS-CoV-2 [3]
  EC50: 17.1 µM

## OCCN1CCN(CCCN2c3ccccc3C=Cc3ccccc32)CC1 [OPIPRAMOL HYDROCHLORIDE]
[1]
  selectivity ratio: > 7.9
[2]
  CC50: > 40 µM
SARS-CoV-2 [3]
  EC50: 5.05 µM

## C=CCOc1ccccc1OCC(O)CNC(C)C (configuration not stated) [OXPRENOLOL HYDROCHLORIDE]
[1]
  selectivity ratio: > 2
[2]
  CC50: > 40 µM
SARS-CoV-2 [3]
  EC50: 20.2 µM
  EC90: > 40 µM

## COc1ccccc1OCC(O)CN1CCN(CC(=O)Nc2c(C)cccc2C)CC1 (configuration not stated) [RANOLAZINE]
SARS-CoV-2 [3]
  EC50: > 40 µM

## COc1ncnc(NS(=O)(=O)c2ccc(N)cc2)c1OC [SULFADOXINE]
[1]
  selectivity ratio: > 1.13
[2]
  CC50: > 40 µM
SARS-CoV-2 [3]
  EC50: 35.4 µM
  EC90: 45.1 µM

## CCOC(=O)c1c(CSc2ccccc2)n(C)c2cc(Br)c(O)c(CN(C)C)c12 [UMIFENOVIR]
[1]
  selectivity ratio: > 3.7
[2]
  CC50: > 40 µM
SARS-CoV-2 [3]
  EC50: 10.7 µM

## CYANOCOBALAMIN
SARS-CoV-2 [4]
  Inhibition index: 0.0637

## Gramicidin
SARS-CoV-2 [4]
  Inhibition index: -0.249

## NEOMYCIN SULFATE
SARS-CoV-2 [4]
  Inhibition index: 0.0953

## Tyloxapol
SARS-CoV-2 [4]
  Inhibition index: 0.101
